Experimental data taken from the supplement of paper PMC10702517.
± gives the standard deviation.

Columns and labels:
[1] = chemical recovery into PDMS from spiked human plasma; higher = better extraction; conditions: pooled human plasma, extraction method: PES with PDMS
[2] = chemical recovery from spiked human plasma; higher = better extraction; conditions: pooled human plasma
[3] = chemical recovery by SPE of plasma after PDMS sampling; higher = better extraction; conditions: pooled human plasma, extraction method: HLB SPE of plasma after PES
[4] = extraction method: SPE only (HLB 96-well), PES comparison experiment
[5] = extraction method: SPE only (HLB 96-well)
[6] = extraction method: solvent precipitation (ACN + hexane)
[7] = extraction method: PES+SPE (3 d PDMS equilibration then HLB SPE)
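Throughout, for chemical recovery by SPE of plasma after PDMS sampling: over 400 spiked chemicals quantified by LC-HRMS or GC-HRMS via internal standard calibration, recovery relative to spike mix added to unspiked plasma extract to correct matrix effects.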

## CC(=O)[C@@]1(O)CC[C@H]2[C@@H]3CCC4=CC(=O)CC[C@]4(C)[C@H]3CC[C@@]21C [17alpha-Hydroxyprogesterone]
[1]; equilibration time (d): 1
  chemical recovery into PDMS: 7.94 ± 0.8%
[1]; equilibration time (d): 3
  chemical recovery into PDMS: 12.2 ± 1.3%
[1]; equilibration time (d): 6
  chemical recovery into PDMS: 13.1 ± 1.1%
[2]; [4]
  chemical recovery: 51.1 ± 7.7%

## CC1=CC(=O)CC(C)(C)C1 [Isophorone]
[1]; equilibration time (d): 1
  chemical recovery into PDMS: 4.8 ± 8.3%
[2]; [5]
  chemical recovery: 0.623 ± 0.28%

## c1ccc2cc3c(cc2c1)-c1cccc2cccc-3c12 [Benzo(k)fluoranthene]
[1]; equilibration time (d): 3
  chemical recovery into PDMS: 92.5 ± 5.6%
[1]; equilibration time (d): 6
  chemical recovery into PDMS: 93.8 ± 18%
[2]; [5]
  chemical recovery: 1.23 ± 0.43%
[2]; [6]
  chemical recovery: 50.7 ± 1.6%

## CN(C)C(=N)NC(=N)N [Metformin]
[1]; equilibration time (d): 6
  chemical recovery into PDMS: 0.002 ± 0.0035%
[2]; [7]
  chemical recovery: 1.5 ± 0.32%
[2]; [5]
  chemical recovery: 2.12 ± 0.71%
[2]; [6]
  chemical recovery: 83.3 ± 12%

## CCC(=O)OCC(=O)[C@@]1(OC(=O)CC)[C@@H](C)C[C@H]2[C@@H]3CCC4=CC(=O)C=C[C@]4(C)[C@@]3(F)[C@@H](O)C[C@@]21C [Betamethasone dipropionate]
[1]; equilibration time (d): 1
  chemical recovery into PDMS: 42.4 ± 3%
[1]; equilibration time (d): 3
  chemical recovery into PDMS: 44 ± 1.3%
[1]; equilibration time (d): 6
  chemical recovery into PDMS: 45.4 ± 3.2%
[2]; [4]
  chemical recovery: 39.3 ± 5.3%

## CC(C)(C)c1ccc(CSc2cnn(C(C)(C)C)c(=O)c2Cl)cc1 [Pyridaben]
[1]; equilibration time (d): 1
  chemical recovery into PDMS: 50.4 ± 7.5%
[1]; equilibration time (d): 3
  chemical recovery into PDMS: 49.7 ± 3.6%
[1]; equilibration time (d): 6
  chemical recovery into PDMS: 49.4 ± 2.4%
[2]; [5]
  chemical recovery: 7.91 ± 1.1%

## O=P1(N(CCCl)CCCl)NCCCO1 (stereo not given) [Cyclophosphamide]
[1]; equilibration time (d): 1
  chemical recovery into PDMS: 1.55 ± 2.7%
[1]; equilibration time (d): 3
  chemical recovery into PDMS: 2.5 ± 4.3%
[1]; equilibration time (d): 6
  chemical recovery into PDMS: 6.21 ± 5.4%
[2]; [7]
  chemical recovery: 49.6 ± 4.1%
[2]; [5]
  chemical recovery: 41 ± 4%
[2]; [4]
  chemical recovery: 55 ± 4.7%
[2]; [6]
  chemical recovery: 70.9 ± 3.3%

## CCOC(=O)c1cn2nc(OP(=S)(OCC)OCC)cc2nc1C [Pyrazophos]
[1]; equilibration time (d): 1
  chemical recovery into PDMS: 39.1 ± 4.4%
[1]; equilibration time (d): 3
  chemical recovery into PDMS: 40.5 ± 2.3%
[1]; equilibration time (d): 6
  chemical recovery into PDMS: 40.1 ± 2.1%
[2]; [7]
  chemical recovery: 55.7 ± 7.8%
[2]; [5]
  chemical recovery: 43 ± 3.4%
[2]; [4]
  chemical recovery: 40.2 ± 7.4%

## Cl[C@H]1[C@H](Cl)[C@@H](Cl)[C@H](Cl)[C@@H](Cl)[C@@H]1Cl [beta-HCH]
[1]; equilibration time (d): 3
  chemical recovery into PDMS: 80.5 ± 10%
[1]; equilibration time (d): 6
  chemical recovery into PDMS: 77.1 ± 5.9%
[2]; [7]
  chemical recovery: 192 ± 11%
[2]; [4]
  chemical recovery: 26.6 ± 2.1%
[2]; [6]
  chemical recovery: 33.3 ± 5.6%

## CCCCCCCCn1sc(Cl)c(Cl)c1=O [DCOIT]
[1]; equilibration time (d): 1
  chemical recovery into PDMS: 25.7 ± 3.8%
[1]; equilibration time (d): 3
  chemical recovery into PDMS: 3.03 ± 5.2%
[1]; equilibration time (d): 6
  chemical recovery into PDMS: 5.33 ± 4.6%
[2]; [5]
  chemical recovery: 27.3 ± 3.7%

## CC(C1CC1)C(O)(Cn1cncn1)c1ccc(Cl)cc1 (stereo not given) [Cyproconazole]
[1]; equilibration time (d): 1
  chemical recovery into PDMS: 37.7 ± 1.8%
[1]; equilibration time (d): 3
  chemical recovery into PDMS: 41.6 ± 3.6%
[1]; equilibration time (d): 6
  chemical recovery into PDMS: 41 ± 0.84%
[3]; equilibration time (d): 1
  chemical recovery by SPE of plasma: 2.91 ± 0.36%
[3]; equilibration time (d): 3
  chemical recovery by SPE of plasma: 2.32 ± 0.46%
[3]; equilibration time (d): 6
  chemical recovery by SPE of plasma: 1.25 ± 0.088%

## CC(=O)c1cc2c(cc1C)C(C)(C)C(C)C2(C)C (stereo not given) [Phantolide]
[1]; equilibration time (d): 1
  chemical recovery into PDMS: 32.9 ± 0.97%
[1]; equilibration time (d): 3
  chemical recovery into PDMS: 37.4 ± 3.8%
[1]; equilibration time (d): 6
  chemical recovery into PDMS: 34.1 ± 3.6%

## CO/N=C(/C1=NOCCO1)c1ccccc1Oc1ncnc(Oc2ccccc2Cl)c1F [Fluoxastrobin]
[1]; equilibration time (d): 1
  chemical recovery into PDMS: 45.4 ± 3.9%
[1]; equilibration time (d): 3
  chemical recovery into PDMS: 50.3 ± 4.7%
[1]; equilibration time (d): 6
  chemical recovery into PDMS: 47.2 ± 5.7%
[3]; equilibration time (d): 1
  chemical recovery by SPE of plasma: 0.73 ± 1.3%
[3]; equilibration time (d): 3
  chemical recovery by SPE of plasma: 0.629 ± 1.1%
[3]; equilibration time (d): 6
  chemical recovery by SPE of plasma: 0.277 ± 0.48%

## Clc1ccc(C(c2ccc(Cl)cc2)C(Cl)Cl)cc1 [4,4-DDD]
[1]; equilibration time (d): 1
  chemical recovery into PDMS: 1.61 ± 0.67%
[1]; equilibration time (d): 3
  chemical recovery into PDMS: 1.42 ± 0.086%
[1]; equilibration time (d): 6
  chemical recovery into PDMS: 1.39 ± 0.11%

## Nc1ccccc1Br [2-Bromoaniline]
[1]; equilibration time (d): 1
  chemical recovery into PDMS: 6.56 ± 0.99%
[1]; equilibration time (d): 3
  chemical recovery into PDMS: 9.84 ± 3%
[1]; equilibration time (d): 6
  chemical recovery into PDMS: 5.91 ± 1.3%
[3]; equilibration time (d): 1
  chemical recovery by SPE of plasma: 0.45 ± 0.78%
[3]; equilibration time (d): 3
  chemical recovery by SPE of plasma: 1.14 ± 0.62%
[3]; equilibration time (d): 6
  chemical recovery by SPE of plasma: 0.431 ± 0.75%

## CCCCC(CC)COC(=O)C(C#N)=C(c1ccccc1)c1ccccc1 (stereo not given) [Octocrylene]
[1]; equilibration time (d): 1
  chemical recovery into PDMS: 62.5 ± 6.4%
[1]; equilibration time (d): 3
  chemical recovery into PDMS: 65.5 ± 8%
[1]; equilibration time (d): 6
  chemical recovery into PDMS: 65.4 ± 1.9%
[2]; [7]
  chemical recovery: 73.7 ± 6%
[2]; [5]
  chemical recovery: 2.21 ± 0.76%
[2]; [6]
  chemical recovery: 59.8 ± 6.2%

## C=CC[C@@H]1/C=C(\C)C[C@H](C)C[C@H](OC)[C@H]2O[C@@](O)(C(=O)C(=O)N3CCCC[C@H]3C(=O)O[C@H](/C(C)=C/[C@@H]3CC[C@@H](O)[C@H](OC)C3)[C@H](C)[C@@H](O)CC1=O)[C@H](C)C[C@@H]2OC [Tacrolimus]
[1]; equilibration time (d): 1
  chemical recovery into PDMS: 23.3 ± 2.5%
[1]; equilibration time (d): 3
  chemical recovery into PDMS: 27.6 ± 2.7%
[1]; equilibration time (d): 6
  chemical recovery into PDMS: 30.5 ± 2.2%
[3]; equilibration time (d): 1
  chemical recovery by SPE of plasma: 5.46 ± 2.7%
[3]; equilibration time (d): 3
  chemical recovery by SPE of plasma: 1.87 ± 3.2%

## ClC1=C(Cl)C2(Cl)C3C4OC4C(Cl)C3C1(Cl)C2(Cl)Cl (stereo not given) [Heptachlorepoxide]
[1]; equilibration time (d): 3
  chemical recovery into PDMS: 99.4 ± 13%
[3]; equilibration time (d): 1
  chemical recovery by SPE of plasma: 1.72 ± 1.8%
[3]; equilibration time (d): 3
  chemical recovery by SPE of plasma: 2.34 ± 0.82%
[3]; equilibration time (d): 6
  chemical recovery by SPE of plasma: 1.89 ± 0.21%

## CC(C)N(C(=O)SCC(Cl)=C(Cl)Cl)C(C)C [Triallate]
[1]; equilibration time (d): 1
  chemical recovery into PDMS: 29 ± 1.7%
[1]; equilibration time (d): 3
  chemical recovery into PDMS: 32.2 ± 4%
[1]; equilibration time (d): 6
  chemical recovery into PDMS: 29.8 ± 1.9%
[2]; [5]
  chemical recovery: 16.3 ± 5%
[2]; [4]
  chemical recovery: 22.8 ± 6.1%
[2]; [6]
  chemical recovery: 76.8 ± 11%

## Nc1ccccc1-c1ccccc1 [2-Aminobiphenyl]
[1]; equilibration time (d): 1
  chemical recovery into PDMS: 14.2 ± 6.8%
[1]; equilibration time (d): 3
  chemical recovery into PDMS: 14 ± 7.3%
[2]; [7]
  chemical recovery: 17.3 ± 3.9%
[2]; [5]
  chemical recovery: 22.6 ± 0.6%
[2]; [4]
  chemical recovery: 27.7 ± 4.4%
[2]; [6]
  chemical recovery: 2.86 ± 5%

## Cl[C@H]1[C@H](Cl)[C@@H](Cl)[C@@H](Cl)[C@H](Cl)[C@H]1Cl [gamma-HCH]
[1]; equilibration time (d): 3
  chemical recovery into PDMS: 57.4 ± 18%
[1]; equilibration time (d): 6
  chemical recovery into PDMS: 58.6 ± 18%
[2]; [4]
  chemical recovery: 9.76 ± 0.99%
[2]; [6]
  chemical recovery: 26.2 ± 8.1%

## COc1cc(Cl)ccc1Oc1ccc(Cl)cc1Cl [Triclosan-methyl]
[1]; equilibration time (d): 6
  chemical recovery into PDMS: 84.6 ± 26%
[2]; [5]
  chemical recovery: 0.483 ± 0.13%
[2]; [4]
  chemical recovery: 12.2 ± 2.8%
[2]; [6]
  chemical recovery: 22.2 ± 1.1%

## O=C(Nc1ccc(F)cc1)c1cccc(Oc2cccc(C(F)(F)F)c2)n1 [Picolinafen]
[1]; equilibration time (d): 1
  chemical recovery into PDMS: 50.6 ± 4.7%
[1]; equilibration time (d): 3
  chemical recovery into PDMS: 54.1 ± 5.5%
[1]; equilibration time (d): 6
  chemical recovery into PDMS: 50.4 ± 4.1%
[2]; [5]
  chemical recovery: 49.3 ± 14%
[2]; [4]
  chemical recovery: 28.9 ± 6%
[2]; [6]
  chemical recovery: 69.8 ± 6%

## CC(=O)C1(C)CC2=C(CCCC2(C)C)CC1C (stereo not given) [ISO E Super]
[1]; equilibration time (d): 1
  chemical recovery into PDMS: 33.8 ± 6.6%
[1]; equilibration time (d): 3
  chemical recovery into PDMS: 34.9 ± 2.3%
[1]; equilibration time (d): 6
  chemical recovery into PDMS: 42.6 ± 7%
[2]; [5]
  chemical recovery: 2.41 ± 2.6%

## O=P(Oc1ccccc1)(Oc1ccccc1)Oc1ccccc1 [Triphenylphosphate]
[1]; equilibration time (d): 1
  chemical recovery into PDMS: 41.3 ± 4.4%
[1]; equilibration time (d): 3
  chemical recovery into PDMS: 43.5 ± 3.7%
[1]; equilibration time (d): 6
  chemical recovery into PDMS: 42 ± 2.9%
[2]; [5]
  chemical recovery: 57.9 ± 4.8%
[2]; [4]
  chemical recovery: 41.3 ± 5.6%
[2]; [6]
  chemical recovery: 88.1 ± 6.6%

## O=c1[nH]cc(F)c(=O)[nH]1 [5-Fluorouracil]
[1]; equilibration time (d): 3
  chemical recovery into PDMS: 0.00395 ± 0.0068%
[2]; [7]
  chemical recovery: 0.502 ± 0.11%
[2]; [5]
  chemical recovery: 0.392 ± 0.68%

## c1ccc2cc3ccccc3cc2c1 [Anthracene]
[1]; equilibration time (d): 1
  chemical recovery into PDMS: 70 ± 4.1%
[1]; equilibration time (d): 3
  chemical recovery into PDMS: 79.7 ± 8.8%
[1]; equilibration time (d): 6
  chemical recovery into PDMS: 80.6 ± 8%
[2]; [4]
  chemical recovery: 17.7 ± 2.9%

## CCCCCCCCCCN(C)C [N,N-Dimethyldecylamine]
[1]; equilibration time (d): 6
  chemical recovery into PDMS: 0.000993 ± 0.0017%
[2]; [4]
  chemical recovery: 39.4 ± 7.1%

## Cl[C@H]1[C@H](Cl)[C@@H](Cl)[C@H](Cl)[C@H](Cl)[C@H]1Cl [alpha-HCH]
[1]; equilibration time (d): 1
  chemical recovery into PDMS: 56.7 ± 14%
[1]; equilibration time (d): 3
  chemical recovery into PDMS: 69.9 ± 18%
[1]; equilibration time (d): 6
  chemical recovery into PDMS: 66.1 ± 14%
[2]; [4]
  chemical recovery: 25.5 ± 5.6%

## O=C(O)C(F)(F)C(F)(F)C(F)(F)C(F)(F)C(F)(F)C(F)(F)C(F)(F)C(F)(F)C(F)(F)F [Perfluorodecanoic acid]
[2]; [5]
  chemical recovery: 20.4 ± 10%
[3]; equilibration time (d): 1
  chemical recovery by SPE of plasma: 25.3 ± 4.6%
[3]; equilibration time (d): 3
  chemical recovery by SPE of plasma: 24.1 ± 4.5%
